Laboratory results reported in BindingDB's records for doi:10.1016/j.ejmech.2007.04.019 (The Hebrew University of Jerusalem, 2008).

What was measured:
[1] = target: T1, Prostaglandin G/H synthase 2 (Homo sapiens, UniProt P35354); assay: Inhibition of cyclooxygenase-2
T1 sequence (P35354 whole entry): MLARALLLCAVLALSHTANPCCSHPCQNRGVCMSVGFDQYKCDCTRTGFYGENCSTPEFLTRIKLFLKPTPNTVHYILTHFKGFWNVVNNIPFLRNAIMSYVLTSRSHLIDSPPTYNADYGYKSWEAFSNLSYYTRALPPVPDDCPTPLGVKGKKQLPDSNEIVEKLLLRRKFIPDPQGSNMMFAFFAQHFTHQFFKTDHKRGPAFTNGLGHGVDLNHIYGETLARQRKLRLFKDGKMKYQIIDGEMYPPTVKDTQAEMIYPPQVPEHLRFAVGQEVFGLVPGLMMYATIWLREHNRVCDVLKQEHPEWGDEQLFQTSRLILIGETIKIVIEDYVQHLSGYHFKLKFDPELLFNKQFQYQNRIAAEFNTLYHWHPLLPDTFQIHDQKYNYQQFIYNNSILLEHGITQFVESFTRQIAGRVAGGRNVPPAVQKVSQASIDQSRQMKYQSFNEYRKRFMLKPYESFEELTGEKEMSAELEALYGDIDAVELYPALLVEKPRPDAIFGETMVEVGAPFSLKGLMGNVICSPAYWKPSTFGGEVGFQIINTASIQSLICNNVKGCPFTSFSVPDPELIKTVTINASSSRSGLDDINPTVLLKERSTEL

[2] = target: Prostaglandin G/H synthase 1 (Homo sapiens, UniProt P23219); assay: Inhibition of cyclooxygenase-1
Chain of Prostaglandin G/H synthase 1 (P23219 whole entry): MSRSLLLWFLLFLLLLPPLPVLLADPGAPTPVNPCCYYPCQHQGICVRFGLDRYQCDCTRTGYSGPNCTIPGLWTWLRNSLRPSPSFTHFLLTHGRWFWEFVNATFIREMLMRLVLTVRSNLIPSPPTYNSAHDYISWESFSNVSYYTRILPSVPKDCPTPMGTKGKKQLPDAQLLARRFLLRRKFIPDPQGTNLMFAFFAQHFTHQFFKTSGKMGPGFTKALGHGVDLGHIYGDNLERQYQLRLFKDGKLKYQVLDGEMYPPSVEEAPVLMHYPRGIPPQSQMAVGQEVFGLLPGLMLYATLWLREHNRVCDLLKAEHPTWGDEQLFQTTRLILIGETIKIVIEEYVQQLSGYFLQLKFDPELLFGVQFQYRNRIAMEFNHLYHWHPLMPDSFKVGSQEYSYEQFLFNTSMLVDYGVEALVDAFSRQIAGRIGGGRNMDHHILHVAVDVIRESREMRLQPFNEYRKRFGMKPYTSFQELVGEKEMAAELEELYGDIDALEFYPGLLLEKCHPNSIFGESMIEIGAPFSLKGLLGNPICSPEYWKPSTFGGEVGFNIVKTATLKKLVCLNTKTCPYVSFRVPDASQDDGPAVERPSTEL

## C=C[C@@H]1[C@@H](O)C[C@@H]2[C@]3(CC[C@]4(C)[C@@H]([C@H](C)CCC(OO)C(=C)C)CC[C@@]24C)C[C@]13CCC(=O)OC (some centres not stated)
[1]
  IC50: 4.7 µM
[2]
  IC50: 43.7 µM
